From patent publication US20120196933A1, “MEXILETINE PRODRUGS” (priority 2010, published 2012)

Columns and labels:
patients = details: cited from earlier work
sodium channel = details: relative to mexiletine; cited from earlier work
[1] = system: patients with myotonic dystrophy (type 1); details: 150 tid or 200 mg tid, 7 weeks; cited from earlier work
[2] = system: rabbit stomach smooth muscle; assay: Electrical field stimulated contractions of isolated rabbit stomach smooth muscle; type: cell-based; details: Oryctolagus cuniculus, read-out: ED50 for attenuation of EFS induced contractions
ADR mouse = assay: Anti-myotonic effects in the ADR mouse (righting response); type: in vivo; details: oral 5 mg/kg
Protocol: The effects of oral administration of either mexiletine glutamic acid amide at 5, 10 or 20 mg/kg or mexiletine 5 mg/kg on the righting response of a group of three adr/adr mice were examined on three separate days. Each assessment involved placing the individual mice on their back no fewer than seven successive occasions in rapid succession and determining the time to successful righting at various time pre and post dosing (−10, +15, +30, +60, +120 & +180 mins).

[3] = system: 9-AC induced myotonia in the rat; assay: Anti-myotonic effects in 9-anthracene carboxylic acid (9-AC) treated rats (righting time); type: in vivo; details: for Mean ± SEM righting response time: 9-AC 30 mg/kg ip
Protocol: The use of ip injection of 9-anthracene carboxylic acid is known to induce a myotonic state in rats which can then be used to assess the activity of potential anti-myotonic compounds (Villegas-NavarroA et al (1992) Exp. Toxicol. Pathol. 44 34-39).
Groups of four rats were predosed with 30 mg/kg 9-AC (time 0) and ten minutes later their righting time was assessed repeatedly seven times in rapid succession. They were then dosed po with mexiletine or mexiletine glutamic acid amide at 1, 5, 10, 20 or 40 mg/kg and the righting time reassessed at ˜30, 60, 120 and 180 minutes after 9-AC injection. At each dose level, a group of four control animals, given vehicle alone, was used

[4] = system: patients with myotonic disorders; details: 1200 mg daily tocamide or 600 mg daily mexiletine, three divided doses; cited from earlier work

CC(C)C[C@H](CN)CC(=O)O [pregabalin]
Patients with dizziness and somnolence (patients; patients treated at the higher doses): up to 30%

Cc1cc(O)cc(C)c1OCC(C)N (stereo not shown) [Para-hydroxymexiletine]
Sodium channel inhibitory activity retained relative to the parent molecule (sodium channel): around 25%

CNCC[C@H](Oc1cccc2ccccc12)c1cccs1 [Duloxetine, duloxetine]
Treated patients with nausea (patients; treated patients): 20-40%

Cc1cccc(C)c1OCC(C)N.Cl (racemic) [Mexiletine hydrochloride, (rac)-1-(2,6-dimethylphenoxy)-2-propanamine hydrochloride]
Reduction in grip relaxation time [1]: 2 fold
EC50 [2]: 2170 nM
Effects on righting time (ADR mouse): marginal
Mean ± SEM righting response time (ADR mouse; +15 mins): 7.80 ± 3.72 s
Mean ± SEM righting response time (ADR mouse; +30 mins): 9.53 ± 5.07 s
Mean ± SEM righting response time (ADR mouse; +60 mins): 10.5 ± 3.68 s
Mean ± SEM righting response time (ADR mouse; +120 mins): 12.5 ± 4.98 s
Mean ± SEM righting response time (ADR mouse; +180 mins): 12.5 ± 4.27 s
Mean ± SEM righting response time (ADR mouse; −10 mins (pre dosing)): 7.94 ± 1.25 s
Coefficient of variation of the response ([3]; 10 mg/kg (same molar dose level), time of maximal effect of 9-AC (+30 mins)): 96%
Mean ± SEM righting response time ([3]; drug 1 mg/kg po, 9-AC +10 mins (predrug)): 1.96 ± 0.193 s
Mean ± SEM righting response time ([3]; drug 1 mg/kg po, 9-AC +30 mins): 2.94 ± 0.490 s
Mean ± SEM righting response time ([3]; drug 1 mg/kg po, 9-AC +60 mins): 1.73 ± 0.165 s
Mean ± SEM righting response time ([3]; drug 1 mg/kg po, 9-AC +120 mins): 1.17 ± 0.124 s
Mean ± SEM righting response time ([3]; drug 1 mg/kg po, 9-AC +180 mins): 0.831 ± 0.169 s
Mean ± SEM righting response time ([3]; drug 5 mg/kg po, 9-AC +10 mins (predrug)): 2.36 ± 0.208 s
Mean ± SEM righting response time ([3]; drug 5 mg/kg po, 9-AC +30 mins): 2.21 ± 0.153 s
Mean ± SEM righting response time ([3]; drug 5 mg/kg po, 9-AC +60 mins): 2.34 ± 0.386 s
Mean ± SEM righting response time ([3]; drug 5 mg/kg po, 9-AC +120 mins): 1.33 ± 0.194 s
Mean ± SEM righting response time ([3]; drug 5 mg/kg po, 9-AC +180 mins): 0.980 ± 0.220 s
Mean ± SEM righting response time ([3]; drug 10 mg/kg po, 9-AC +10 mins (predrug)): 2.26 ± 0.195 s
Mean ± SEM righting response time ([3]; drug 10 mg/kg po, 9-AC +30 mins): 3.28 ± 1.58 s
Mean ± SEM righting response time ([3]; drug 10 mg/kg po, 9-AC +60 mins): 2.28 ± 0.347 s
Mean ± SEM righting response time ([3]; drug 10 mg/kg po, 9-AC +120 mins): 1.41 ± 0.190 s
Mean ± SEM righting response time ([3]; drug 20 mg/kg po, 9-AC +10 mins (predrug)): 2.27 ± 0.260 s
Mean ± SEM righting response time ([3]; drug 20 mg/kg po, 9-AC +60 mins): 1.43 ± 0.294 s
Mean ± SEM righting response time ([3]; drug 20 mg/kg po, 9-AC +120 mins): 0.949 ± 0.131 s
Mean ± SEM righting response time ([3]; drug 40 mg/kg po, 9-AC +10 mins (predrug)): 2.61 ± 0.088 s
Mean ± SEM righting response time ([3]; drug 40 mg/kg po, 9-AC +60 mins): 0.913 ± 0.0507 s
Mean ± SEM righting response time ([3]; drug 40 mg/kg po, 9-AC +120 mins): 0.746 ± 0.0699 s
Mean ± SEM righting response time ([3]; drug 40 mg/kg po, 9-AC +180 mins): 0.583 ± 0.0606 s
Increase in the speed of stair step movement [4]: 2.8 fold
Reduction in the time taken for eye opening [4]: 6 fold
Reduction of hand opening time [4]: 6.9 fold
